From PubChem BioAssay (NCI)
Several values for one entry are separate records, joined by “and”; a condition that tells them apart may be missing. Equal values may be shown once.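 Test compounds were applied to cells in 96-well plates for 48 hours at 5 doses. At the GI50, growth is halved. Definition used: TGI = concentration required for complete inhibition of growth.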

Tests used:
Assay in all cases: growth of human tumour cells (NCI), 48 h
[1] = test system: M14 melanoma
[2] = test system: DLD-1 colon
[3] = test system: OVCAR-4 ovarian
[4] = test system: SF-295 CNS
[5] = test system: RPMI-8226 leukemia
[6] = test system: SNB-19 CNS
[7] = test system: NCI-H522 lung
[8] = test system: HCT-15 colon
[9] = test system: KM20L2 colon
[10] = test system: SR leukemia

| SMILES | TGI [1] | TGI [2] [µM] | TGI [3] | TGI [4] | TGI [5] | TGI [6] | TGI [7] | TGI [8] | TGI [9] [µM] | TGI [10] [µM] | GI50 [1] [µM] | GI50 [3] | GI50 [4] | GI50 [5] | GI50 [6] | GI50 [10] [µM] | GI50 [7] | GI50 [8] |
| --- | --- | --- | --- | --- | --- | --- | --- | --- | --- | --- | --- | --- | --- | --- | --- | --- | --- | --- |
| CC(=O)O[C@H]1CC[C@@]2(C)C(=CC[C@@H]3C2CC[C@]2(C)Nc4nc5ccccc5cc4CC32)C1 (some centres not stated) | 5.03 µM | 15.6 | 21.4 µM | 13.9 µM | 42.1 µM | 7.89 µM | 24.1 µM | 8.01 µM | 3.66 | – | – | – | – | – | – | – | – | – |
| C=CCc1cc(OC)c2c(c1)C(OC)CC(c1ccc(OC)c(OC)c1)O2 (configuration not stated) | > 100 µM | > 100 | > 100 µM | > 100 µM | > 100 µM | > 100 µM | – | > 100 µM | > 100 | – | – | – | – | – | – | – | – | – |
| Cn1nc(-c2ccccc2)c2c(/C=C/c3ccccc3)onc2c1=O | > 100 µM | > 100 | – | > 100 µM | > 100 µM | > 100 µM | > 100 µM | > 100 µM | > 100 | > 100 | – | – | – | – | – | – | – | – |
| CC1(c2ccc(Cl)cc2)C2C(=O)NC(=O)C1C(=O)NC2=O (configuration not stated) | > 100 µM | > 100 | > 100 µM | > 100 µM | > 100 µM | > 100 µM | > 100 µM | > 100 µM | > 100 | – | – | – | – | – | – | – | – | – |
| CCOC(=O)C1(C)CCCCC(=O)N1 (configuration not stated) | > 100 µM | > 100 | > 100 µM | > 100 µM | – | > 100 µM | – | > 100 µM | > 100 | – | – | – | – | – | – | – | – | – |
| CC(=O)OC1COC(n2c(=S)n(-c3ccccc3)c(=O)c3ccccc32)C(OC(C)=O)C1OC(C)=O (configuration not stated) | > 100 µM | > 100 | > 100 µM | 85.7 µM | > 100 µM | > 100 µM | > 100 µM | > 100 µM | > 100 | – | – | – | – | – | – | – | – | – |
| CC(=O)NNc1nc(C)c(C(=O)NNC(=O)C(=O)Nc2ccc(Cl)cc2Cl)s1 | > 100 µM | > 100 | 56.8 µM | > 100 µM | > 100 µM | > 100 µM | 52.8 µM | > 100 µM | > 100 | – | – | – | – | – | – | – | – | – |
| CC(SC(=O)Nc1ccc(N=Nc2ccccc2)cc1)C(=O)O (configuration not stated) | > 100 µM | – | > 100 µM | > 100 µM | > 100 µM | > 100 µM | > 100 µM | > 100 µM | > 100 | > 100 | – | – | – | – | – | – | – | – |
| COc1ccc(/C(C#N)=C2C=C/C(=N/O)c3ccccc3\2)cc1 | 2.01 µM | – | 39.1 µM | 13 µM | 9.76 µM | 29.6 µM | 0.838 µM | 4.52 µM | – | 5.06 | 0.228 | 0.927 µM | 0.687 µM | 0.371 µM | 2.8 µM | 0.133 | 0.0891 µM | 0.168 µM |
| CC(=O)C1=C(O)C2C3c4c[nH]c5cccc(c45)CC3C(C)(C)N2C1=O (configuration not stated) | > 100 µM | > 100 | > 100 µM | > 100 µM | > 100 µM | > 100 µM | 63.4 µM | > 100 µM | > 100 | – | – | – | – | – | – | – | – | – |
| O=S(=O)(c1cnccc1N1CCN(CCO)CC1)N1CCCC1 | > 100 µM | – | > 100 µM | > 100 µM | > 100 µM | > 100 µM | > 100 µM | > 100 µM | – | > 100 | – | – | – | – | – | – | – | – |
| COC(=O)[C@H]1CCCN1C(=O)[C@H]1CCCN1C(=O)[C@H](Cc1c[nH]c2ccccc12)NC(=S)Nc1cc(C(F)(F)F)cc(C(F)(F)F)c1 | 64.1 µM | – | > 100 µM | 12.9 µM | > 100 µM | > 100 µM | 77.2 µM | > 100 µM | – | > 100 | 7.15 | 6.49 µM | 2.77 µM | 5.24 µM | 9.49 µM | 3.67 | 4.49 µM | 6.26 µM |
| CCN(CC)Cc1cc2[nH]c3c4ccc(Cl)cc4ncc3c2cc1OC | 3.59 µM and 3.4 µM | – | 4.33 µM and 3.4 µM | 9.67 µM and 4.01 µM | 5.09 µM and 4.56 µM | 7.51 µM and 11.9 µM | 17.7 µM and 4.97 µM | 8.66 µM and 6.94 µM | – | – | 1.88 | 1.9 µM and 1.54 µM | 4.98 µM and 1.95 µM | 1.26 µM and 1.87 µM | 2.63 µM and 3.51 µM | 2.36 | 7.16 µM and 2.2 µM | 2.05 µM and 2.46 µM |
| Cc1cc(Cl)nc(N(CCCNc2ccnc3cc(Cl)ccc23)Cc2ccco2)n1 | 4.08 µM | – | 12.2 µM | 2.81 µM | 3.19 µM | 14.7 µM | 12.4 µM | 7.61 µM | – | 4.49 | 1.88 | 2.31 µM | 1.28 µM | 1.04 µM | 3.46 µM | 1.65 | 2.93 µM | 1.99 µM |
| Cn1cc(C2=C(c3cn(CCCCCSC(=N)N)c4ccccc34)C(=O)NC2=O)c2ccccc21 | 6.87 µM | – | 7.32 µM | 5.38 µM | 9.61 µM | 6.82 µM | 5.59 µM | 8.03 µM | – | 2.24 | 3.23 | 3.16 µM | 1.76 µM | 4.13 µM | 3.52 µM | 0.79 | 1.92 µM | 3.8 µM |
| Cc1ccc(S(=O)(=O)N/N=C(/c2nc3ccc([N+](=O)[O-])cc3[nH]c2=O)C(O)c2ccc(C(O)/C(=N\NS(=O)(=O)c3ccc(C)cc3)c3nc4ccc([N+](=O)[O-])cc4[nH]c3=O)cc2)cc1 (configuration not stated) | > 100 µM | > 100 | – | – | > 100 µM | > 100 µM | 55.7 µM | – | > 100 | – | – | – | – | – | – | – | – | – |
| Brc1ccc2ns[s+]c2c1 | 5.88 µM | – | > 100 µM | > 100 µM | > 100 µM | > 100 µM | > 100 µM | > 100 µM | > 100 | > 100 | – | – | – | – | – | – | – | – |
| CC(=O)NC(CC(C)C)C(=O)NC(Cc1ccccc1)C(=S)N1CCCC1 (configuration not stated) | > 100 µM | – | > 100 µM | > 100 µM | > 100 µM | > 100 µM | > 100 µM | > 100 µM | > 100 | – | – | – | – | – | – | – | – | – |
| COc1ccc(N(C)c2nc(N)nc3sc4c(c23)CCCC4)cc1 | 11.4 µM | – | 15.3 µM | 13.1 µM | 15.6 µM | 16.9 µM | – | 13 µM | – | 11 | < 0.01 | < 0.01 µM | < 0.01 µM | < 0.01 µM | < 0.01 µM | < 0.01 | < 0.01 µM | < 0.01 µM |
| CC(C)(C)C(C#N)(C#N)c1ccc(C(C#N)(C#N)C(C)(C)C)nn1 | > 100 µM | > 100 | > 100 µM | > 100 µM | > 100 µM | > 100 µM | > 100 µM | > 100 µM | > 100 | – | – | – | – | – | – | – | – | – |
